This is an account of results in patent publication US20080107707A1, “POLYMERIZABLE ANTIMICROBIAL COMPOSITION” (REGENTS OF THE UNIVERSITY OF COLORADO, priority 2006, published 2008).

In series [1] the test system is S. epidermidis ATCC 12228. In words: Minimum bactericidal concentration (MBC), plating of broth dilution tubes. In kind it is cell-based, Staphylococcus epidermidis. The method, then: The MBC is another parameter used to assess the usefulness of an antibacterial. It provides some measure of the concentration of agent required to kill bacteria, not just inhibit their growth. In this test, 10 μL of media from each tube were plated on trypticase soy agar (TSA) plates with 5% sheep blood (Becton, Dickinson, and Co., Sparks, Md.) and grown for 24 hr. at 37° C. The MBC was taken to be the lowest VPA concentration at which no colonies were observed.

Series [2] has as its system S. epidermidis ATCC 12228. In words: Minimum inhibitory concentration (MIC), broth dilution method. In kind it is cell-based, Staphylococcus epidermidis. As to the method:
The minimum inhibitory concentration (MIC) and minimum bactericidal concentration (MBC) of the monomer were determined by the broth dilution method. Various amounts of VPA were added to 1 mL of brain heart infusion media (BHI) (Becton, Dickinson, and Co., Sparks, Md.) along with 1×10^5 cfu of S. epidermidis ATCC 12228 (MicroBiologics, Inc., St. Cloud, Minn.) using aseptic technique. Cultures were incubated for 24 hr. at 37° C. The MIC was taken to be the lowest VPA concentration at which no turbidity was observed.

Values after ≈ are worked out from the molar mass of the structure shown.

In series [1] (Staphylococcus epidermidis, ATCC12228), `CN[C@H](CC(C)C)C(=O)N[C@H]1C(=O)N[C@@H](CC(N)=O)C(=O)N[C@H]2C(=O)N[C@H]3C(=O)N[C@H](C(=O)N[C@H](C(=O)O)c4cc(O)cc(O)c4-c4cc3ccc4O)[C@H](O)c3ccc(c(Cl)c3)Oc3cc2cc(c3O[C@@H]2O[C@H](CO)[C@@H](O)[C@H](O)[C@H]2O[C@H]2C[C@](C)(N)[C@H](O)[C@H](C)O2)Oc2ccc(cc2Cl)[C@H]1O` [vancomycin, reference compound] yielded an MBC of 1.12 ± 0.04 µM (≈ 1.62 µg/mL).

As to vancomycin-PEG(3400)-acrylate [VPA], the “MIC (lowest concentration at which no turbidity was observed)” value in series [2] (1×10^5 cfu in 1 mL BHI, 24 hr at 37° C, mean ±std. dev.) was 11.5 ± 0.8 mg/L. In series [2] (S. epidermidis ATCC 12228, broth dilution), this compound gave an MIC of 2.35 ± 0.15 µM. In series [1] (10 μL plated on TSA 5% sheep blood, 24 hr at 37° C, mean ±std. dev.), the “MBC (lowest concentration at which no colonies were observed)” value worked out at 15 ± 1 mg/L. In series [1] (S. epidermidis ATCC 12228), this compound registered an MBC of 3.0 ± 0.2 µM.
